Assay type: physicochemical
Text: The short degradation period refers that the biodegradation effect is high; it has advantage that the secondary infection due to the suture is decreased.

With “poly(glycolide-co-L-lactide) [PGLA suture]” as the substance, how does the “degradation behavior (in words)” value read?
Its value is “degradation of the suture was quickly progressed”.

— US20110135761A1, “ANTIMICROBIAL SUTURE FOR MEDICAL USE WITH GRAPEFRUIT EXTRACT, AND MANUFACTURING METHOD THEREOF” (Korea Institute of Ceramic Engineering and Technology, priority 2009, published 2011)
